Measurements as given in US6586596B2, “Acetylcholine enhancers” (priority 1998, dated 2003).
Read-outs that look alike come from different tables or passages of the source.

Tests used:
AChE = molecular target: T1, AChE (Rattus norvegicus, UniProt P37136); type: in vivo; details: 1 hour after dosing
T1 construct: from tissue; host or cells: rat brain (hippocampus, striatum, frontal cortex, parietal cortex)
T1 sequence (P37136 32-614): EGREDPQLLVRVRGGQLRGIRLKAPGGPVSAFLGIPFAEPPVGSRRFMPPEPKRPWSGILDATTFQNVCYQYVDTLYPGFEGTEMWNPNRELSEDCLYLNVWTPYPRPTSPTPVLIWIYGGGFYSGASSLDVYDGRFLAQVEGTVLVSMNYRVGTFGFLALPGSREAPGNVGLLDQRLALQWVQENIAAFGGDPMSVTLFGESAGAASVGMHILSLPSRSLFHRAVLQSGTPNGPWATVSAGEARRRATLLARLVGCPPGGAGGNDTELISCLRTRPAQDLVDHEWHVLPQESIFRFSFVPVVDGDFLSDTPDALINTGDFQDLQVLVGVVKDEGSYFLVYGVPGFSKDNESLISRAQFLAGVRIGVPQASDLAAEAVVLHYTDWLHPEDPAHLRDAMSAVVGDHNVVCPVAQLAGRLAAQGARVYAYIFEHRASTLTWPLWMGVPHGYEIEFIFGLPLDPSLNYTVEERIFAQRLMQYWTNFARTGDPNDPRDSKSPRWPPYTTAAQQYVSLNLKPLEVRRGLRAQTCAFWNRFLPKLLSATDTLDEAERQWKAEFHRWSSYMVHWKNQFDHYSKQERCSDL
Method: After 1 hour, rats were sacrificed and brains were isolated and divided into several portions. AChE activity in preparations from hippocampus, striatum, frontal cortex and parietal cortex was determined by Ellman's method.

5-HT3 receptor = molecular target: T2, 5-HT3 receptor (Mus musculus, UniProt P23979); assay: serotonin 5-HT3 binding assay (NovaScreen), NIE-115 cells; details: 25° C., 60 minutes
T2 construct: The receptor source was NIE-115 cells; host or cells: NIE-115 cells
T2 sequence (P23979 24-489): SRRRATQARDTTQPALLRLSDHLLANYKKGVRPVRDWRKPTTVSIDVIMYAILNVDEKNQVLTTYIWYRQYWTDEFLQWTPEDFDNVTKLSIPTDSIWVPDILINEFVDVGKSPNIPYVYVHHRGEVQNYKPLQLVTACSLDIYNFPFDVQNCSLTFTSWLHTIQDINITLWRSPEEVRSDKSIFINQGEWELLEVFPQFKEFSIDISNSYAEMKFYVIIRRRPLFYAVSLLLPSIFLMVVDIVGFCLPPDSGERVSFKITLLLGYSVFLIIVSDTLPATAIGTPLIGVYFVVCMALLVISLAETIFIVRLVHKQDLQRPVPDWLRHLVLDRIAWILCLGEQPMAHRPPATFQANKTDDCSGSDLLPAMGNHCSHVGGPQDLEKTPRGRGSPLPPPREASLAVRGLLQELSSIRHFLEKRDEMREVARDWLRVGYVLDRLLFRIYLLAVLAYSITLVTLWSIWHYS
Method: Binding affinity of a variety of compounds, including Cm.A, for the 5-HT3 receptor was investigated using a commercially available serotonin 5-HT3 binding assay (NovaScreen, Hanover, Md.). The receptor source was NIE-115 cells (See Lunnis, S. C. R. and Kilparick, G. J., 189: Evr. Jrnl. Pharmacol. 223 (1990); and Hoyer, D. and Heijt, H. C., 33 Mol. Pharmacol., 303 (1988)). The reference compound utilized was “MDL 72222,” a 5-HT3 receptor antagonist. Reactions were carried out in 20 mM HEPES (pH 7.4) containing 150 mM NaCl at 25° C. for 60 minutes. The reaction was terminated by rapid vacuum filtration onto glass fiber filters. Radioactivity trapped onto the filters was determined and compared with the control values.

[1] = tested on: scopolamine-induced spatial memory deficit; assay: Eight-arm radial maze, scopolamine-induced deficit in spatial memory; type: in vivo, male Wistar rats; details: oral dose 0.03~0.3 mg/kg; scopolamine 0.5 mg/kg i.p.
Method: Using male Wistar rats, the anti-amnestic effects of Cm.A on spatial cognition was evaluated using an eight-arm radial maze task. After repeated trials for spatial cognition, memory-established rats (which had more than 7 correct choices and less than one error) were utilized.

[2] = tested on: scopolamine-induced spatial learning deficit; assay: Water maze, scopolamine-induced deficit in spatial learning; type: in vivo, rats; details: p.o. 60 minutes before each trial; Cm.A 1.0 mg/kg/day; scopolamine 0.5 mg/kg i.p.
Method: A total of 6 trials (2 trials on 1st day, and 1 trial after 2nd day) were conducted to observe the effects of the test compounds. Scopolamine (0.5 mg/kg, i.p.) and the test compounds (p.o.) were administered 30 and 60 minutes before each trial, respectively.

healthy volunteers = assay: Human Phase IA single-dose, dose-escalation clinical trial; type: in vivo; details: single oral dose 2 mg to 180 mg
Method: A Phase IA clinical trial was conducted as a single-dose, double-blind, placebo-controlled, dose-escalation study. This study investigated the safety and pharmacokinetic profile of the particularly preferred salt (depicted in FIG. 1B; N-[2-( 1-benzylpiperizin-4-yl)ethyl]-2,3-dihydro-9-methoxy-1H-pyrrolo[3,4-b]quinolin-1-one hemifumarate) of the compound of FIG. 1A, N-[2-(1-benzylpiperzin-4-yl)ethyl]-2,3-dihydro-9-methoxy-1H-pyrrolo[3,4-b] quinolin-1-one. The compound was administered orally in doses from 2 mg to 180 mg to healthy volunteers (male and female), aged 50-75 years, under fasting conditions. A total of 68 individuals were enrolled in the study and completed the trial. A maximum tolerated dose was not identified in this study, i. e., even at 180 mg, there were insufficient adverse events to establish a true “maximum tolerated dose” in this study.

BF-lesioned rats = assay: Passive avoidance, basal forebrain (BF) lesion-induced memory impairment
Method: Using male Wistar rats, passive-avoidance studies were conducted using a step through-type, 2 compartment (light and dark) box. In the acquisition trial, at the time when the animal entered the dark area, a guillotine door was closed and an electric shock (0.5˜0.8 mA for 3 seconds) was delivered to the animal. After 24 hours, the retention trial was conducted: the rat was put in the light area and the time until the animal entered the dark area (latency) was measured. Cutoff latency was set at 600 seconds. Test substances were orally administered 30 minutes before the acquisition trial.
After 2 weeks, the acquisition trial was conducted.

## COc1c2c(nc3ccccc13)CN(CCC1CCN(Cc3ccccc3)CC1)C2=O [Cm.A, 2-[2-(1-benzylpiperizin-4-yl)ethyl]-2,3-dihydro-9-methoxy-1H-pyrrolo[3,4-b]quinolin-1-one hemifumarate]
AChE; 1 mg/kg p.o.
  AChE activity Frontal cortex: 48.1 nmol/min/mg protein
  AChE activity Hippocampus: 37.6 ± 0.8 nmol/min/mg protein
  AChE activity Parietal cortex: 27.3 ± 0.5 nmol/min/mg protein
  AChE activity Striatim: 238.9 nmol/min/mg protein
AChE; 3 mg/kg p.o.
  AChE activity Frontal cortex: 56 nmol/min/mg protein
  AChE activity Hippocampus: 42.1 ± 1.3 nmol/min/mg protein
  AChE activity Parietal cortex: 31.3 ± 1.6 nmol/min/mg protein
  AChE activity Striatim: 219.9 nmol/min/mg protein
AChE; 10 mg/kg p.o.
  AChE activity Frontal cortex: 58.4 nmol/min/mg protein
  AChE activity Hippocampus: 48.3 ± 2.9 nmol/min/mg protein
  AChE activity Parietal cortex: 32.6 ± 1.7 nmol/min/mg protein
  AChE activity Striatim: 274.0 nmol/min/mg protein
AChE; p.o.
  inhibition of AChE activity (text on Table 3): inhibition of AChE in a nondose dependent manner
5-HT3 receptor; IC50, 20 mM HEPES pH 7.4, 150 mM NaCl
  IC50: 1180 nM
5-HT3 receptor; Ki, 20 mM HEPES pH 7.4, 150 mM NaCl
  Ki: 552 nM
[1]
  deficit of spatial cognition (correct choices, errors): significantly improved the deficit of spatial cognition
[2]
  deficit in spatial learning (escape latency): improved the deficit in spatial learning induced by scopolamine
Healthy volunteers
  safety parameters (vital signs, ECG, blood chemistry, hematology, urinalysis, physical examination): no clinically significant changes
  serious adverse events: no serious adverse events reported
Healthy volunteers; fasting, aged 50-75 years
  maximum tolerated dose: > 180 mg
Healthy volunteers; 68 individuals enrolled
  mild adverse events: seven mild adverse events
BF-lesioned rats; 0.03~0.3 mg/kg/day for 1 week
  memory deficit induced by BF-lesion, repeated doses: improvement in recovery as potently as or more potently than THA and E2020
BF-lesioned rats; single dose 0.03~1.0 mg/kg
  memory deficit induced by BF-lesion, single dose: partially, but significantly, recovered the memory deficit
